Counter-ions that a name gives are not always drawn. Like-named read-outs stand apart in the source and are kept apart here.
Tests used:
[1] = Adverse signs and mortality after SC administration of SDE; format: in vivo, mouse; conditions: SC at 10 mL/kg
Procedure: (§1) Compared to the placebo control group, SDE (administered SC at 10 mL/kg) was associated with significant reduction of substance P-induced scratching behaviors at 4 hours (18.8±11.8 bouts) and 12 hours (24.5±4.1 bouts) post treatment. […] However, SC administration of SDE would cause high concentration of nalbuphine in the circulation and induce serious adverse effects.

[2] = test system: substance P-induced scratching; experiment: Mouse substance P-induced scratching model, subcutaneous SDE; format: in vivo; conditions: for substance P-induced scratching bouts: SC, 75 mg/mL oily formulation at 10 mL/kg, 30-minute observation
Procedure: The time-course and antipruritic effects of SDE via subcutaneous (SC) injection were studied in the mouse substance P-induced scratching model to evaluate the effect of SDE's antipruritic effect. In this study, SDE was dissolved in an oily formulation, with a concentration at 75 mg/mL.
Substance P, the endogenous ligand for the neurokinin-1 (NK-1) receptor, is a significant mediator of pruritus. […] Intradermal injection of substance P elicits an itch sensation in human subjects, and an associated itch response in mice.
as §1

[3] = Ex vivo skin drug permeation and penetration, MedFlux-HT diffusion cell system; format: in vitro ADME, human
Procedure: The ten formulations listed in Table 7 were used to evaluate the penetration of drug into human skin using the MedFlux-HT™ diffusion cell system. In this study, human skins with about 500±50 μm thickness were fixed on the MedFlux-HT diffusion cell system. About 10 mg of test formulation was applied to the epidermal side of the human skin, and a continued flow of receiver fluid was place at the opposite side of the skin. Because SDE is rapidly converted into nalbuphine by the esterases in the biological environment, both nalbuphine and SDE concentration were measured to access the drug permeation status. The concentration of nalbuphine and SDE in receiver fluid indicated the amount of drug that had penetrated through the human skin.
Tissue levels of SDE and nalbuphine in the dermis and epidermis, and the amount of SDE and nalbuphine in the receiver fluids over 24 hours were determined and are shown in FIG. 1A and FIG. 1B. SDE and nalbuphine were both detected in receiver fluid, dermis, and epidermis. The cumulative amounts of SDE and nalbuphine in receiver fluid recovered at 24 hours were 89-1978 ng/cm^2 and 169-978 ng/cm^2, respectively.
These formulations were used to evaluate the penetration of drug into human skin using the MedFlux-HT™ diffusion cell system according to Example 8.

[4] = format: physicochemical
Procedure: Individual excipients were investigated to determine their compatibility with SDE (at 50° C. for 2 and 4 weeks) for potential use in a topical formulation.

[5] = Whole blood concentration of nalbuphine after the scratching observation; format: in vivo; conditions: ICR, mouse, subcutaneous, 30 mg/kg, SC at 0.5 hour, read-out: effective systemic concentration of nalbuphine (whole blood)
Procedure: Immediately after the scratching observation of Example 11, whole blood was collected from each mouse via the vena cava, and the nalbuphine concentration in each sample was determined.
Immediately after the scratching observation of Example 14, whole blood was collected from each mouse via the vena cava, and the nalbuphine concentration in each sample was determined.

[6] = test system: substance P-induced scratching; experiment: Mouse substance P-induced scratching model, topical application; format: in vivo; conditions: 30 mg/kg, SC, 0.5 hour post treatment
Procedure: Groups of 10 or 20 male ICR mice weighing 23±3 grams were used. One day before testing, hair was removed at the substance P injection sites. […] Substance P (250 nmol/site) was injected intradermally (ID) in a volume of 50 μL/site into the rostral portion of the back (the same region as test compound application). As reference, nalbuphine HCl was injected subcutaneously on the lower back region (different site as Substance P challenge). The scratching behavior was recorded for 30 minutes by visual observation immediately after substance P injection.
The time-course and antipruritic effects of the Ointment formulations via topical application were investigated in the mouse substance P-induced scratching model according to Example 11. On the testing day, the tested formulations (TA-1, TA-2, TA-3, and TA-4) were applied topically on the rostral portion of the back (2×2 cm region) at 4 hours prior to substance P challenge. 15 male ICR mice were used for each group. As reference, nalbuphine HCl was injected subcutaneously on the lower back region (different site as Substance P challenge). The scratching behavior was recorded for 30 minutes by visual observation immediately after substance P injection.

[7] = four ointment formulations of Table 13

SMILES: O=C(CCCCCCCCC(=O)Oc1ccc2c3c1O[C@H]1[C@@H](O)CC[C@@]4(O)[C@@H](C2)N(CC2CCC2)CC[C@]314)Oc1ccc2c3c1O[C@H]1[C@@H](O)CC[C@@]4(O)[C@@H](C2)N(CC2CCC2)CC[C@]314 [SDE, Sebacoyl Dinalbuphine Ester]
- adverse signs observed [1]: signs of depression, tremor and hypothermia
- mortality rate ([1]; 24 hours): 7.7%
- mortality rate ([1]; 48 hours): 35.7%
- suppressive effect on scratching responses ([2]; SC at 10 mL/kg, 24 hours): 45%
- attenuation of scratching responses ([2]; SC at 10 mL/kg, 48 hours): loss of activity
- substance P-induced scratching bouts ([2]; 4 hours post treatment): 18.8±11.8 bouts
- substance P-induced scratching bouts ([2]; 12 hours post treatment): 24.5±4.1 bouts
- concentration of SDE in receiver fluid versus concentration of nalbuphine [3, 7]: comparable
- concentrations of SDE in dermis and epidermis versus concentrations of nalbuphine [3, 7]: much greater
- concentration of SDE in receiver fluid versus concentration of nalbuphine ([3]; ten formulations of Table 7): comparable
- concentrations of SDE in dermis and epidermis versus concentrations of nalbuphine ([3]; ten formulations of Table 7): 10 fold
- SDE degradation ([4]; combination of BHT with Transcutol P compared to Transcutol P alone, 50° C.): reduce the degree of SDE degradation
- SDE purity (%) ([4]; in Castor oil, 50° C., 2 weeks): 80.20%
- SDE purity (%) ([4]; in Castor oil, 50° C., 4 weeks): 75.71%
- SDE purity (%) ([4]; in Castor oil, T = 0): 100.00%
- SDE purity (%) ([4]; in Diisopropyl adipate, 50° C., 2 weeks): 99.60%
- SDE purity (%) ([4]; in Diisopropyl adipate, 50° C., 4 weeks): 99.49%
- SDE purity (%) ([4]; in Diisopropyl adipate, T = 0): 100.00%
- SDE purity (%) ([4]; in Isopropyl myristate (IPM), 50° C., 2 weeks): 99.51%
- SDE purity (%) ([4]; in Isopropyl myristate (IPM), 50° C., 4 weeks): 85.75%
- SDE purity (%) ([4]; in Isopropyl myristate (IPM), T = 0): 100.00%
- SDE purity (%) ([4]; in Miglyol 810 (Caprylic/Capric triglyceride), 50° C., 2 weeks): 99.66%
- SDE purity (%) ([4]; in Miglyol 810 (Caprylic/Capric triglyceride), 50° C., 4 weeks): 99.69%
- SDE purity (%) ([4]; in Miglyol 810 (Caprylic/Capric triglyceride), T = 0): 100.00%
- SDE purity (%) ([4]; in PEG 400 (pH 4-5) + BHT, 50° C., 2 weeks): 96.38%
- SDE purity (%) ([4]; in PEG 400 (pH 4-5) + BHT, 50° C., 4 weeks): 93.24%
- SDE purity (%) ([4]; in PEG 400 (pH 4-5) + BHT, T = 0): 98.31%
- SDE purity (%) ([4]; in PEG 400 (pH 4-5), 50° C., 2 weeks): 94.01%
- SDE purity (%) ([4]; in PEG 400 (pH 4-5), 50° C., 4 weeks): 96.97%
- SDE purity (%) ([4]; in PEG 400 (pH 4-5), T = 0): 100.00%
- SDE purity (%) ([4]; in Super refined PEG 400 (pH 4-5), 50° C., 2 weeks): 93.17%
- SDE purity (%) ([4]; in Super refined PEG 400 (pH 4-5), 50° C., 4 weeks): 92.23%
- SDE purity (%) ([4]; in Super refined PEG 400 (pH 4-5), T = 0): 100.00%
- SDE purity (%) ([4]; in Transcutol P + BHT, 50° C., 2 weeks): 14.65%
- SDE purity (%) ([4]; in Transcutol P + BHT, 50° C., 4 weeks): 4.21%
- SDE purity (%) ([4]; in Transcutol P + BHT, T = 0): 96.90%
- SDE purity (%) ([4]; in Transcutol P, 50° C., 2 weeks): 5.69%
- SDE purity (%) ([4]; in Transcutol P, 50° C., 4 weeks): 1.50%
- SDE purity (%) ([4]; in Transcutol P, T = 0): 94.31%
- change of SDE purity ([4]; in deionized water (at both pH 4 and 5) and Transcutol P, 50° C. for 2 and 4 weeks): Significant reductions
- SDE purity (%) ([4]; in water (pH 4), 50° C., 2 weeks): 28.91%
- SDE purity (%) ([4]; in water (pH 4), 50° C., 4 weeks): 14.47%
- SDE purity (%) ([4]; in water (pH 4), T = 0): 96.61%
- SDE purity (%) ([4]; in water (pH 5), 50° C., 2 weeks): 28.74%
- SDE purity (%) ([4]; in water (pH 5), 50° C., 4 weeks): 5.43%
- SDE purity (%) ([4]; in water (pH 5), T = 0): 96.83%

SMILES: Oc1ccc2c3c1O[C@H]1[C@@H](O)CC[C@@]4(O)[C@@H](C2)N(CC2CCC2)CC[C@]314 [nalbuphine HCl]
- concentration at 0.5 h [5]: ~207 ng/mL
- substance P-evoked scratching behaviors ([6]; versus respective control (Example 11)): significantly reduced
- substance P-evoked scratching behaviors ([6]; versus respective control (Example 14)): significantly reduced
